Assay results: patent US11345666B2, “Phenyl and pyridinyl substituted imidazoles as modulators of RORγT” (Janssen Pharmaceutica NV, priority 2018, dated 2022)

These compounds were tested against human RORγt ligand binding domain (RORγt LBD) (Homo sapiens (Human), UniProt P51449) (assay: RORγt ThermoFluor assay).
Procedure, shortened: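 Thermal shift of His-tagged human RORγt LBD (0.065 mg/mL) with 60 μM 1,8-ANS in 100 mM Hepes pH 7.0, 10 mM NaCl, 2.5 mM GSH, 0.002% Tween-20, heated at 1° C./min. Compounds in 1:2 series from a 10 mM DMSO stock; KD estimated from ΔTm using protein unfolding thermodynamics.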

Chain of human RORγt ligand binding domain (RORγt LBD) (P51449 other isoform, or with tags, fused parts or gaps): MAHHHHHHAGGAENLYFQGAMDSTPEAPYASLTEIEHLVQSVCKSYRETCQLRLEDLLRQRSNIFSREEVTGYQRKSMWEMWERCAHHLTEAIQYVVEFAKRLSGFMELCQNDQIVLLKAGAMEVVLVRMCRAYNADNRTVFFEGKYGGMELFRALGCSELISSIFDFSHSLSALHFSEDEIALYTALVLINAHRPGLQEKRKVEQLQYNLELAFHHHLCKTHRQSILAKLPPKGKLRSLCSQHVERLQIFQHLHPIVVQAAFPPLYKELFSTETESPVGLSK

Row | Structure (SMILES) | Kd [nM]
1 | CCc1nc(C(=O)NC[C@]2(O)CC[C@@H](S(C)(=O)=O)CC2)c(C)n1-c1ccc(CC(C(F)(F)F)C(F)(F)F)cc1F [Example 109, 2-Ethyl-1-(2-fluoro-4-(3,3,3-trifluoro-2-(trifluoromethyl)propyl)phenyl)-N-(((1s,4s)-1-hydroxy-4-(methylsulfonyl)cyclohexyl)methyl)-5-methyl-1H-imidazole-4-carboxamide] | 6.5
2 | CCc1nc(C(=O)NC[C@H]2CC[C@H](S(C)(=O)=O)CC2)c(F)n1-c1ccc(N[C@H](C)C(F)(F)F)cc1OC [Example 12, 2-Ethyl-5-fluoro-1-(2-methoxy-4-(((R)-1,1,1-trifluoropropan-2-yl)amino)phenyl)-N-(((1r,4R)-4-(methylsulfonyl)cyclohexyl)methyl)-1H-imidazole-4-carboxamide] | 12
3 | CCc1nc(C(=O)NC[C@H]2CC[C@H](S(C)(=O)=O)CC2)c(Cl)n1-c1ccc(CCC(F)(F)F)cc1F [Example 22, 5-Chloro-2-ethyl-1-(2-fluoro-4-(3,3,3-trifluoropropyl)phenyl)-N-(((1r,4r)-4-(methylsulfonyl)cyclohexyl)methyl)-1H-imidazole-4-carboxamide] | 20
4 | CCc1nc(C(=O)NC[C@H]2CC[C@H](S(C)(=O)=O)CC2)c(C)n1-c1ccc(CC(C)C(F)(F)F)cc1OC (single isomer, unassigned) [Example 7] | 1
5 | CCc1nc(C(=O)NC[C@H]2CC[C@H](S(C)(=O)=O)CC2)c(Cl)n1-c1ccc(CC(C)C(F)(F)F)cc1OC (single isomer, unassigned) [Example 6, 5-Chloro-2-ethyl-1-((1S*)-2-methoxy-4-(3,3,3-trifluoro-2-methylpropyl)phenyl)-N-(((1r,4S)-4-(methylsulfonyl)cyclohexyl)methyl)-1H-imidazole-4-carboxamide] | 0.17
6 | CCc1nc(C(=O)NC[C@]2(O)CC[C@@H](S(C)(=O)=O)CC2)c(C#N)n1-c1ccc(CC(C)(C)C(F)(F)F)cc1OC(F)(F)F [Example 111, 5-Cyano-2-ethyl-N-(((1s,4s)-1-hydroxy-4-(methylsulfonyl)cyclohexyl)methyl)-1-(4-(3,3,3-trifluoro-2,2-dimethylpropyl)-2-(trifluoromethoxy)phenyl)-1H-imidazole-4-carboxamide] | 24

Results, then the compound that gave them:

Row | Kd [nM] | Structure (SMILES)
7 | 3.5 | CCc1nc(C(=O)NC[C@H]2CC[C@H](S(C)(=O)=O)CC2)c(Cl)n1-c1ccc(N[C@H](C)C(F)(F)F)cc1OC [Example 3, 5-Chloro-2-ethyl-1-(2-methoxy-4-(((R)-1,1,1-trifluoropropan-2-yl)amino)phenyl)-N-(((1r,4R)-4-(methylsulfonyl)cyclohexyl)methyl)-1H-imidazole-4-carboxamide]
8 | 2.4 | CCc1nc(C(=O)NC[C@H]2CC[C@H](S(C)(=O)=O)CC2)c(Cl)n1-c1ncc(CC(C)(C)C(F)(F)F)cc1OC(F)F [Example 2, 5-Chloro-1-(3-(difluoromethoxy)-5-(3,3,3-trifluoro-2,2-dimethylpropyl)pyridin-2-yl)-2-ethyl-N-((4-(methylsulfonyl)cyclohexyl)methyl)-1H-imidazole-4-carboxamide]
9 | 0.76 | [2H]C([2H])([2H])Oc1cc(CC(C)(C)C(F)(F)F)ccc1-n1c(CC)nc(C(=O)NC[C@H]2CC[C@H](S(C)(=O)=O)CC2)c1C#N [Example 27, 5-Cyano-2-ethyl-1-(2-(methoxy-d3)-4-(3,3,3-trifluoro-2,2-dimethylpropyl)phenyl)-N-(((1r,4r)-4-(methylsulfonyl)cyclohexyl)methyl)-1H-imidazole-4-carboxamide]
10 | 2.1 | CCc1nc(C(=O)NC[C@]2(O)CC[C@@H](S(C)(=O)=O)CC2)c(Cl)n1-c1ccc(CC(C(F)(F)F)C(F)(F)F)cc1F [Example 100, 5-Chloro-2-ethyl-1-(2-fluoro-4-(3,3,3-trifluoro-2-(trifluoromethyl)propyl)phenyl)-N-(((1s,4s)-1-hydroxy-4-(methylsulfonyl)cyclohexyl)methyl)-1H-imidazole-4-carboxamide]
11 | 2.6 | CCc1nc(C(=O)NC[C@]2(O)CC[C@@H](S(C)(=O)=O)CC2)c(Cl)n1-c1c(F)cc(CC(C)C)cc1F [Example 83, 5-Chloro-1-(2,6-difluoro-4-isobutylphenyl)-2-ethyl-N-(((1s,4s)-1-hydroxy-4-(methylsulfonyl)cyclohexyl)methyl)-1H-imidazole-4-carboxamide]
12 | 1.6 | CCc1nc(C(=O)NC[C@H]2CC[C@H](S(C)(=O)=O)CC2)c(C#N)n1-c1ccc(CC(C)(C)C(F)(F)F)cc1OC(F)F [Example 36, 5-Cyano-1-(2-(difluoromethoxy)-4-(3,3,3-trifluoro-2,2-dimethylpropyl)phenyl)-2-ethyl-N-(((1r,4r)-4-(methylsulfonyl)cyclohexyl)methyl)-1H-imidazole-4-carboxamide]
